In assay [1] the target is Glyceraldehyde-3-phosphate dehydrogenase (Homo sapiens, UniProt P04406).
Assay [2] deals with T1, Bcl-2-related protein A1 (Mus musculus, UniProt Q07440).
T1 sequence (Q07440 whole entry): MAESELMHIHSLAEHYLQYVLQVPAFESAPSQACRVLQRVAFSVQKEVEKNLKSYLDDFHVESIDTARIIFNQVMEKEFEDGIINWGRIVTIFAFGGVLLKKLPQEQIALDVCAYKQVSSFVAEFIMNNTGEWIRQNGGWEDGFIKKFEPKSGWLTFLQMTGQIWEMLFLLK
Put plainly: Bfl-1 binding inhibitors, SAR follow-up, biochemical, fluorescence polarization (AID 1070).

The target of assay [3] is T1, Bcl-2-related protein A1. The assay is described as follows: small-molecule antagonists of Bfl-1/BH3 interaction – biochemical, TR-FRET, mouse Bfl-1, confirmation (AID 621).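 Further: TR-FRET binding of GST-Bfl-1 to FITC-labelled Bid peptide via terbium antibody.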 In general terms: In TR-FRET formats the signal depends on donor and acceptor labels being close together.
The target of another assay is Vasopressin V1a receptor (Homo sapiens, UniProt P37288). The assay is described as follows: Counterscreen for Oxytocin Receptor (OXTR) agonists: Fluorescence-based cell-based high throughput dose response assay to identify agonists of the vasopressin 1 receptor (V1R). [Related pubchem assays: 2435 (Primary screen (OXTR agonists in singlicate)), 434991 (Counterscreen (V1R agonists in triplicate)), 2482 (Summary (OXTR agonists)) …. It is filed as functional. A general note: The purpose of a counterscreen is to sort out artefacts and off-target activity.
Vasopressin V1a receptor, sequence (P37288 whole entry): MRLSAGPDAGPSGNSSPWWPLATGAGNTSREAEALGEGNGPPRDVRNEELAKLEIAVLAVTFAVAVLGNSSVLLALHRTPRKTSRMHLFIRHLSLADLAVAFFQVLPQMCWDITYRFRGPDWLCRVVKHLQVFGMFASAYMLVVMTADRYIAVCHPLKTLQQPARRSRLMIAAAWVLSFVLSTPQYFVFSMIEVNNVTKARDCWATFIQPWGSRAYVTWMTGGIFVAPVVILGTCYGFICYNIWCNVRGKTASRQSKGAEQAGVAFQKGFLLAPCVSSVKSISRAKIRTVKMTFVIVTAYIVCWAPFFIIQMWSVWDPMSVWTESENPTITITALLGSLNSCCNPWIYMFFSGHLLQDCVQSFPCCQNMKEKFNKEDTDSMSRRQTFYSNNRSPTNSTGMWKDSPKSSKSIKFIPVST

In assay [4] the target is T2, Voltage-gated N-type calcium channel alpha-1B subunit/Amyloid beta A4 precursor protein-binding family A member 1 (Homo sapiens, UniProt Q00975+Q02410). The class given is protein assay.
T2 sequence (Q00975 whole entry): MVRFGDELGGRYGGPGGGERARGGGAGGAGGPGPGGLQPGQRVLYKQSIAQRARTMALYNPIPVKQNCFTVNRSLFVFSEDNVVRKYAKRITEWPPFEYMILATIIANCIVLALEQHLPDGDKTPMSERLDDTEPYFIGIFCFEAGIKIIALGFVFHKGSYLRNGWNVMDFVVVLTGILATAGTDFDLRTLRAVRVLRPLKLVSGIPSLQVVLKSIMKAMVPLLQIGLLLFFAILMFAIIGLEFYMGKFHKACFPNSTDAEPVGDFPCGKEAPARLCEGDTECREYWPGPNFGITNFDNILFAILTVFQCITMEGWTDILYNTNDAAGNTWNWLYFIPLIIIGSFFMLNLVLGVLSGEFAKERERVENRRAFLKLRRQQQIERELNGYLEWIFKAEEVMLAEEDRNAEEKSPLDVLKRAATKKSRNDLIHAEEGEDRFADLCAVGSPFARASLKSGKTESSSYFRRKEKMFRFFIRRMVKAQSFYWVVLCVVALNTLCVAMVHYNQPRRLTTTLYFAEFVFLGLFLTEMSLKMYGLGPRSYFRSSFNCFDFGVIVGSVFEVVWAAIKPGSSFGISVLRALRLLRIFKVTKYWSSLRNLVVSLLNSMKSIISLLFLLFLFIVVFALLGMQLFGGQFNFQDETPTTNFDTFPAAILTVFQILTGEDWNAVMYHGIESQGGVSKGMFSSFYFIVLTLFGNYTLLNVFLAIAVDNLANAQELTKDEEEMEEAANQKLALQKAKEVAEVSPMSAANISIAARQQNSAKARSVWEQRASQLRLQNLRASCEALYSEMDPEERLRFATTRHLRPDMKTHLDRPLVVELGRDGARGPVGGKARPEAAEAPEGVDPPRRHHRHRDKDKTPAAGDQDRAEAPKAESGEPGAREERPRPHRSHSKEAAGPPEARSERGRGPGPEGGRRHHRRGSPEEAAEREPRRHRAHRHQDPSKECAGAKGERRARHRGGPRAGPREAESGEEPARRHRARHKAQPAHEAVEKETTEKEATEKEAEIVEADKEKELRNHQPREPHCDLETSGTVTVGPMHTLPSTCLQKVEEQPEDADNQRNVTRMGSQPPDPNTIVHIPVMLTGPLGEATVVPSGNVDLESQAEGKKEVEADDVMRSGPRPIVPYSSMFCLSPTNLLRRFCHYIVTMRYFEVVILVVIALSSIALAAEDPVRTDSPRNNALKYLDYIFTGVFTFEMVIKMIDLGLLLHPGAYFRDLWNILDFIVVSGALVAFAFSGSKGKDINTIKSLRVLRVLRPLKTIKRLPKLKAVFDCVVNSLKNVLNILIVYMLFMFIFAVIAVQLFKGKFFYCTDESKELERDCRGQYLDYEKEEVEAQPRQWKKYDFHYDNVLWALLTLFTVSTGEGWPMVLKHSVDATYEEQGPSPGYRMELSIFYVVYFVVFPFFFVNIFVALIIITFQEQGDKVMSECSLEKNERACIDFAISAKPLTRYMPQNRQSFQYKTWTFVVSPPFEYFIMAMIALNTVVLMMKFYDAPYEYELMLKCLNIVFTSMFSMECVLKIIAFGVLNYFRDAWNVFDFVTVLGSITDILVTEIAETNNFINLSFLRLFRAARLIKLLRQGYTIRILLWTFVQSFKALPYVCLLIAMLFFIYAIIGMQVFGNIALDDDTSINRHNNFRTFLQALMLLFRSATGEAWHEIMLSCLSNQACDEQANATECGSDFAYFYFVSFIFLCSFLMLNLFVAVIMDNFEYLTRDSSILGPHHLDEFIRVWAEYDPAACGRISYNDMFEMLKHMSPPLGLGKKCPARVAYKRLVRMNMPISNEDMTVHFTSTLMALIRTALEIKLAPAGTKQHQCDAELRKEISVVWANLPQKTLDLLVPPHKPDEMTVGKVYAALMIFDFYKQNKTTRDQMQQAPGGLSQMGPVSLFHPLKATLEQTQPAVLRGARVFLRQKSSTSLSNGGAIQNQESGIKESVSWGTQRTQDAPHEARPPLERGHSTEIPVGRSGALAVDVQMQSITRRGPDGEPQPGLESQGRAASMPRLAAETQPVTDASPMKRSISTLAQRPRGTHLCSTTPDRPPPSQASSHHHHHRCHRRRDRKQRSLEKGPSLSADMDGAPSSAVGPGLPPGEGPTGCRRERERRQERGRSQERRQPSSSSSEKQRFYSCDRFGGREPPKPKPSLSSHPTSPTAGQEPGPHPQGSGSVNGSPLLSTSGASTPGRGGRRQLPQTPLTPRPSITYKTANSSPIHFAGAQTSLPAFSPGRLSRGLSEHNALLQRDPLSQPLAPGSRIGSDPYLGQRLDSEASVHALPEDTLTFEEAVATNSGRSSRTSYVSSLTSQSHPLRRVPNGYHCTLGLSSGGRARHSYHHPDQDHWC
T2 sequence (Q02410 whole entry): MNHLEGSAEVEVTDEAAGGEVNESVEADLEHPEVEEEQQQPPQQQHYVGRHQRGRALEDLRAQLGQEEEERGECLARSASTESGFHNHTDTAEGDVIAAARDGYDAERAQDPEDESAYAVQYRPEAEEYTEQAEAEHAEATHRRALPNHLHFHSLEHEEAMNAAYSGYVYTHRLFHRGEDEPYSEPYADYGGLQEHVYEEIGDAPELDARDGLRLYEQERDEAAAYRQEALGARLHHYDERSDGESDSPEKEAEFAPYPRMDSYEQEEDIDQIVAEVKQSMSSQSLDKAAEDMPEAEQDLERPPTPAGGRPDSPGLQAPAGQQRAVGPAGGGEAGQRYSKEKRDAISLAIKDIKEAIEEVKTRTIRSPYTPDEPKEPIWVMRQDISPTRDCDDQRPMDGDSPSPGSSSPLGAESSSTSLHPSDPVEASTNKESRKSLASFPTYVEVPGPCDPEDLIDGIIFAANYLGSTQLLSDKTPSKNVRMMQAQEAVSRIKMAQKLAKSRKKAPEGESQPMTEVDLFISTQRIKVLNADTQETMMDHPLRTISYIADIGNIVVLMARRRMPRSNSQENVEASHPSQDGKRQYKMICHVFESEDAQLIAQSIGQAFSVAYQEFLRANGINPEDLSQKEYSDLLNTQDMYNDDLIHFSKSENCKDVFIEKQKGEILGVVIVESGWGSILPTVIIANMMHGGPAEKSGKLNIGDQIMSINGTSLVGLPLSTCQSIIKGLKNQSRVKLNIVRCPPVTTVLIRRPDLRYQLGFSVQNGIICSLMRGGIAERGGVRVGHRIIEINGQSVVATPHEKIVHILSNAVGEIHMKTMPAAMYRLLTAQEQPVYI
In assay [5] the target is Eukaryotic translation initiation factor 4E (Mus musculus, UniProt P63073). The assay is described as follows: blockers of eIF4G binding by eIF4E – biochemical, TR-FRET, dose response (AID 855).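 Further: potency for disrupting eIF4E binding to eIF4GI seen as loss of FRET.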 It is filed as functional.
The target of another assay is Oxytocin receptor (Homo sapiens, UniProt P30559). Put plainly: Fluorescence-based cell-based high throughput dose response assay for agonists of the Oxytocin Receptor (OXTR). [Related pubchem assays: 2435 (Primary screen (OXTR agonists in singlicate)), 434991 (Counterscreen (V1R agonists in triplicate)), 2482 (Summary (OXTR agonists)), 434963 (Confirmation screen (OXTR agonists in triplicate))]. The class given is functional.
Oxytocin receptor, sequence (P30559 whole entry): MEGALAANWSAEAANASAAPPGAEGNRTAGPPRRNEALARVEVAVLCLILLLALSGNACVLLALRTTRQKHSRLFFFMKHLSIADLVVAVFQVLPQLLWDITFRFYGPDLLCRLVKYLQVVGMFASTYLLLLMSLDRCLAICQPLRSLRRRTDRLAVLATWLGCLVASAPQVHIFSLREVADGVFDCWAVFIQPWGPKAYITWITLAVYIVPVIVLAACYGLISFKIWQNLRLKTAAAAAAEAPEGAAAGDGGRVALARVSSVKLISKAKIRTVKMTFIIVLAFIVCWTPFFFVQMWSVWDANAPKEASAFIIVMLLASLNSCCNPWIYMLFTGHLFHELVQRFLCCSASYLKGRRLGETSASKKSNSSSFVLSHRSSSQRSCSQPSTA

Assay [6] concerns the target DNA dC->dU-editing enzyme APOBEC-3A (Homo sapiens, UniProt P31941). The assay is described as follows: A3A deaminase inhibition for selectivity – biochemical, dose response (AID 504722). The class given is functional.
Assay [7] can be described thus: viability of PTEN-deleted HCT116 cells – cell-based, HCT116 PTEN knockout, dose response (AID 1047).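 Further: HCT116 colon tumor cells with PTEN knocked out; cells exposed to compound for 60 hours before readout; potency for loss of cell viability measured by luminescence.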 It is filed as functional.
In assay [8] the target is T2, Voltage-gated N-type calcium channel alpha-1B subunit/Amyloid beta A4 precursor protein-binding family A member 1. It is filed as protein assay. The source holds these as a separate data set.
For assay [9], the target named is DNA dC->dU-editing enzyme APOBEC-3G (Homo sapiens, UniProt Q9HC16). The assay is described as follows: Dose Response confirmation of small molecule APOBEC3G DNA Deaminase Inhibitors via a fluorescence-based single-stranded DNA deaminase assay. [Related pubchem assays (depositor defined):AID493012, AID493028]. It is filed as functional.
Assay [10] addresses T3, Interleukin-8 (Homo sapiens, UniProt P10145).
T3 sequence (P10145 whole entry): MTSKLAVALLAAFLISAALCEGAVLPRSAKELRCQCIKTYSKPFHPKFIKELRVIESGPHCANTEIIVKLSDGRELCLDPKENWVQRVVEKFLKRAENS
Put plainly: SAR analysis of GM-Tri-DAP induced IL-8 secretion in MCF-7/NOD1 cells - Set 2. [Related pubchem assays (depositor defined):AID1575, AID1578, AID2333]. It is filed as functional, cell-based.

The target of assay [11] is T3, Interleukin-8. Put plainly: SAR analysis of Tumor necrosis factor alpha (TNF-alpha) induced IL-8 secretion in MCF-7/NOD1 cells - Set 2. [Related pubchem assays (depositor defined):AID1575, AID2250, AID2260]. The class given is functional, cell-based.
The next assay deals with Tumor necrosis factor (Homo sapiens, UniProt P01375). Put plainly: analog potency on TNFa NF-kB signaling – cell-based, revised, SAR follow-up (AID 2337). The class given is functional.
Tumor necrosis factor, sequence (P01375 whole entry): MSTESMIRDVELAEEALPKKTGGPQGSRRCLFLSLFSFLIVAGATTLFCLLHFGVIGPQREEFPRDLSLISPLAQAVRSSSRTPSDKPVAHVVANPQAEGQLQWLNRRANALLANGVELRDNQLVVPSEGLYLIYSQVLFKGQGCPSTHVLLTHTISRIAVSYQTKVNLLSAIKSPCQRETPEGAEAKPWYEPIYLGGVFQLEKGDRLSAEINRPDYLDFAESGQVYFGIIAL
Assay [12] can be described thus: viability of uninfected HEp-2 cells – cell-based, HTS, cytotoxicity control for RSV inhibitor project, dose response (AID 2410). Particulars: human respiratory syncytial virus. It is filed as functional.
The nature of assay [13]: cells.
Assay [14] in a line: cells. This is another data set of the same source.
Assay [15] relates to Streptococcus sp. 'group A'. Put plainly: Streptococcus pyogenes SK(-)GAS viability under kanamycin – luminescence, BacTiterGlo, confirmation, counter-screen for streptokinase expression inhibitor project, dose response (AID 1900). It is filed as functional, organism-based.
The next assay has as its system Streptococcus. Put plainly: GAS UMAA2166 growth inhibition – luminescence, BacTiterGlo, counter-screen for streptokinase expression inhibitor project, dose response (AID 1915).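 Further: potency for reduction of bacterial viability or growth.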 The class given is functional, organism-based.
In the next assay the test system is INS1. The assay is described as follows: INS-1E survival protection against cytokine death – cell-based, luminescence, retest, dose response (AID 449756).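 Further: cell death triggered by IL-1 beta plus TNF-alpha plus IFN-gamma mixture; protective hits raise ATP signal compared with cytokine alone wells.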 The class given is functional. Particulars: Rattus norvegicus.
Assay [16] in a line: cells. The class given is functional.
Assay [17] can be described thus: Luminescence-based dose response cell-based high throughput screening assay for cytotoxic compounds using the IEC-6 intestinal epithelial cell line. [Related pubchem assays: 1858 (Summary AID.), 1825 (Counterscreen.), 1907 (Confirmation screen.)]. The class given is functional.
A short description of assay [18]: THP-1 cell cytotoxicity, dose response, cytotoxicity control for non-replicating M. tuberculosis project (AID 489025). The class given is functional.
Assay [19] in a line: HepG2 cell cytotoxicity, dose response, cytotoxicity control for non-replicating M. tuberculosis project (AID 489018). The class given is functional. Particulars: Mycobacterium tuberculosis.
Assay [20] is described as follows: NIH3T3 cell viability loss – ATP luminescence, mouse fibroblasts, counter-screen, dose response (AID 2010).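 Further: cells exposed to compound for about 90 hours before reading.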 The class given is functional, cell-based.
Assay [21] can be described thus: Vero E6 cell cytotoxicity, dose response, cytotoxicity control for non-replicating M. tuberculosis project, secondary assay (AID 492998). It is filed as functional, VeroE6. Particulars: Vero C1008.
A short description of assay [22]: Trypanosoma cruzi growth suppression in host cells – NIH3T3 host cells, beta-gal luminescence, confirmation (AID 2044).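 Further: intracellular parasites grown in NIH/3T3 mouse fibroblasts as host cells; luminescent beta-galactosidase reporter signal from transgenic T. cruzi replicating inside host cells; inhibitors lower the luminescence signal.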 It is filed as functional, cell-based.
A short description of assay [23]: A Cell Based Secondary Assay To Explore Cytotoxicity of Compounds that Sensitize Mycobacterium Tuberculosis to Beta-Lactam Antibiotics. The class given is functional.
Assay [24] is described as follows: DRD fibroblast viability loss – cell-based, non-viral oncogenic, luminescence, dose response (AID 1934). The class given is functional. The conditions noted are these: Homo sapiens.
The test system of assay [25] is BJ. The assay is described as follows: BJ-TERT fibroblast viability loss – cell-based, RAS-independent, luminescence, dose response (AID 1933). It is filed as functional. The conditions noted are these: Homo sapiens.
Assay [26] relates to BJ. The assay is described as follows: BJ-TERT-LT-ST fibroblast viability loss – cell-based, RAS-independent, luminescence, dose response (AID 1935).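 Further: BJ fibroblasts immortalized with TERT plus LT and ST oncogenes.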 The class given is functional. The conditions noted are these: Homo sapiens.
For assay [27], the system named is BJ. Put plainly: cells. The class given is functional, cell-based. The conditions noted are these: Homo sapiens.
For another assay, the target named is Cytochrome P450 2D6 (Homo sapiens, UniProt P10635). Put plainly: qHTS Assay for Inhibitors and Substrates of Cytochrome P450 2D6. [Related pubchem assays: 410 ]. It is filed as ADME. Particulars: read-out: Potency. On the technique in general: qHTS replaces the single test concentration by a dilution series.
The next assay has as its target Cytochrome P450 2C9 (Homo sapiens, UniProt P11712). Particulars: Potency.

Several values for one entry are separate records, joined by “and”; a condition that tells them apart may be missing. Equal values may be shown once. Activity calls are given as the source filed them.

Cytochrome P450 2C9, sequence (P11712 whole entry): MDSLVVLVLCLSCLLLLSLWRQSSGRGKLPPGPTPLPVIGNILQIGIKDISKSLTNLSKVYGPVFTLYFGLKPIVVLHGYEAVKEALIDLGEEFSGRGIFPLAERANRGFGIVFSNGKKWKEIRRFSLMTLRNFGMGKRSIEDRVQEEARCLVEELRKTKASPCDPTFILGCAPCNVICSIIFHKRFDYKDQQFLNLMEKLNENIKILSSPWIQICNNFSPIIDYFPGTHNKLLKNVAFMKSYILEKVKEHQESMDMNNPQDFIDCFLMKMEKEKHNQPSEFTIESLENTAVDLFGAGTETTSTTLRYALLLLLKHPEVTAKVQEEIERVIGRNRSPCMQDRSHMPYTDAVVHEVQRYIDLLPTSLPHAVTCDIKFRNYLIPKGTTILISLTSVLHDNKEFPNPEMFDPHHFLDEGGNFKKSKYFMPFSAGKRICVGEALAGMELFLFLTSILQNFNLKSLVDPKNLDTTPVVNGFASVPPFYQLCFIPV
DNA dC->dU-editing enzyme APOBEC-3A, sequence (P31941 whole entry): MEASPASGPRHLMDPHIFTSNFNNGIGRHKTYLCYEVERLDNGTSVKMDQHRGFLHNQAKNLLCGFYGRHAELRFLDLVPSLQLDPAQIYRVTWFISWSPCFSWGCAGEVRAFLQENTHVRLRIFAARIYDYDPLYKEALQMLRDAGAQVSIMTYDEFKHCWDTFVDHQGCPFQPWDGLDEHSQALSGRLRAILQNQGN

Broadly, the IC50 is the concentration that gives 50% inhibition. For `Cc1ccc(Cl)cc1N1CCN(C2=C(Cl)C(=O)N(c3ccc(Cl)c(Cl)c3)C2=O)CC1`, the IC50 (in assay [1]; on Bcl-2-related protein A1 [2]; against Bcl-2-related protein A1 [3]) was > 100 µM (not active) each time.
Broadly, the EC50 is the midpoint of the concentration-response curve. As for `Cc1cc(Cl)ccc1/N=c1\ssnc1Cl`, the EC50 at Vasopressin V1a receptor is > 29.9 µM (not active); at Oxytocin receptor it was > 29.9 µM (not active); in assay [7], 49 µM (active). In addition, the 50% inhibitory concentration (IC50) in [4] was 15.4 µM (active); in [5], > 64 µM (inactive); in [6], > 100 µM (inactive); in assay [8] it was 2.3 µM (active); in assay [9] it was 11.9 µM (active).
For the compound `Nc1nc2ccccc2n1Cc1ccc(Cl)cc1`, the half-inhibitory concentration (IC50) was 12.1 µM (active) at Interleukin-8 [10]; 19.8 µM (active) on Interleukin-8 [11]; 8.92 µM (active) and > 20 µM (inactive) against Tumor necrosis factor.
Usually CC50 stands for the concentration at which the toxic effect on the cells reaches its halfway point. As to `O=C(Cc1cccc2ccccc12)Nc1ccccc1C(=O)O`, the CC50 in assay [12] is 28.8 µM (active). Moreover, the IC50 in “cells [13]” is 24.4 µM (active).
`C/C(=N\NC(=O)c1ccc(Cl)cc1)c1ccccn1`: the concentration giving a half-maximal response (EC50) in “cells [14]” is 64 nM (active); in [15] it was 2.33 µM (active); in the assay on Streptococcus it was 7.47 µM (active); in assay [20] it was 1.04 µM (active); in assay [22] it was < 100 nM (active). For the same compound, the AC50 in the assay with INS1 was 340 nM (active). Besides, the 50% inhibitory concentration (IC50) in the assay “cells [16]” was 800 nM (active); in assay [17], 546 nM (active). Besides, the CC50 in [18] is 551 nM (active); in assay [19] it was 6.87 µM (active); in assay [21], 1.52 µM (active).
Consider `COc1ccc(Cn2c(=O)[nH]c3cc(C(=O)N4CCN(c5ccccc5F)CC4)ccc3c2=O)cc1`, for which the CC50 in [23] is > 40 µM (active).
`COc1ccc(OC)c(Nc2nc(-c3cccs3)cs2)c1`: the CC50 in assay [12] is 26.5 µM (active); in assay [23], > 40 µM (active).
For `COc1cccc(/C=N/Nc2snc(SC)c2C#N)c1O`, the EC50 at Vasopressin V1a receptor is > 29.9 µM (not active); in [24], 48.3 µM (active); in the assay with BJ [25], 27 µM (active); in the assay on BJ [26] it was > 150 µM (not active); on Oxytocin receptor, > 29.9 µM (not active); in the assay on BJ [27] it was 40.4 µM (active). Besides, the AC50 in the assay with INS1 was 3960 nM (active).
On to `CC(=O)[C@@H]1[C@H]2[C@@H](C(=O)[C@H]3OC[C@H]2O3)[C@@H]2C=Cc3ccccc3N12`, for which the AC50 is 39.8 µM (inconclusive) at Cytochrome P450 2D6 and 31.6 µM (inconclusive) at Cytochrome P450 2C9.

Source of the values: ChEMBL document CHEMBL1201862, “PubChem BioAssay data set” (2004).
